We go through one compound from article PMC6340882, “Targeting protein kinase CK2 and CDK4/6 pathways with a multi-kinase inhibitor ON108110 suppresses pro-survival signaling and growth in mantle cell lymphoma and T-acute lymphoblastic leukemia” (Oncotarget, 2018).

Each structure is given as a SMILES string.

Data set [1] is described as follows: Growth inhibition (GI50), Cell Titer Blue. The class given is cell-based, human. The settings on record: normal human peripheral blood mononuclear cells (hPBMC); hPBMC, Normal Human Peripharal Mononuclear Cells; 96 hrs post-treatment. How it is done: (§1) Cell lines were cultured in RPMI-1640 medium (Thermo Scientific) supplemented with 10% heat inactivated FBS and penicillin-streptomycin at 37°C under humidified conditions and 5% CO2. All cell lines tested negative for mycoplasma. […] Compounds were added 24 hrs post-plating at the indicated concentrations. Cell counts were determined from duplicate wells 96 hrs post-treatment using the Cell Titer Blue assay in conjunction with the GloMax plate reader (Promega).
(§2) Peripheral blood samples were obtained from patients at the Icahn School of Medicine at Mount Sinai with informed and written consent for tissue banking following a protocol approved by the Institutional Review Board (MSSM IRB#11-1669) and in accordance with the Declaration of Helsinki. Peripheral blood mononuclear cells were pelleted by low-speed centrifugation, resuspended in media composed of 90% fetal bovine serum (FBS) and 10% DMSO (Sigma), frozen slowly in the vapor phase of liquid nitrogen in multiple cryovials, and stored in liquid nitrogen.
In general terms: Alamar Blue is a resazurin reagent that responds to reducing activity.

Data set [2] has as its system hPBMC. Description: Growth inhibition (GI50), Cell Titer Blue. The class given is cell-based, human. The settings on record: normal human cells (Table 1). How it is done: as §1, §2
Data set [3] addresses CDK4/CyclinD1 (Homo sapiens, UniProt P11802). The experiment in a line: Kinase panel profiling (Reaction Biology Corp). Particulars: CDK4/CyclinD1, kinase inhibition profile. The class given is biochemical. How it is done: (§3) Initial testing of ON108110 against a panel of 285 functional kinases was performed by Reaction Biology Corp (Malvern, PA). Recombinant CDK4/CYCLIN D1 or CK2α1 were mixed with their respective synthetic peptide substrates (10ng) and incubated with DMSO or increasing concentrations of ON108110 in 20μl kinase buffer [50mM Tris-HCl (pH 7.5), 10mM MgCl2, 1mM EGTA, 2mM DTT and 0.01% NP-40] for 30 min. at room temperature. Kinase reactions were carried out for 20 min at 30°C in the presence of 5μl of substrate-ATP mixture (1μg RB, 20μM ATP, 20μCi γ-^32P-ATP). The reactions were incubated at 30°C for 20 minutes, terminated by addition of 0.5M O-phosphoric acid and 10μl of the reaction mixture was spotted on P-30 Filtermat membranes (Wallac #1450-523). The filtermat was air-dried, blocked with methanol for 2 minutes followed by three washes with 75mM phosphoric acid. The filtermat was then air-dried and analyzed using a phosphoimager. Densitometric values were plotted as a function of log drug concentration using Prism 4 GraphPad software and the IC50 values determined by plotting sigmoidal non-linear regression curves with variable slope (n=3).

Data set [4] has as its target CDK4/CyclinD3 (Homo sapiens, UniProt P11802). The experiment in a line: Kinase panel profiling (Reaction Biology Corp). The class given is biochemical. Particulars: CDK4/CyclinD3, kinase inhibition profile. How it is done:
as §3

For data set [5], the target named is CDK5/P25 (Homo sapiens, UniProt Q00535). Description: Kinase panel profiling (Reaction Biology Corp). The class given is biochemical. Particulars: CDK5/P25, kinase inhibition profile. How it is done:
as §3

Data set [6] addresses CDK6/CyclinD1 (Homo sapiens, UniProt Q00534). The experiment in a line: Kinase panel profiling (Reaction Biology Corp). The class given is biochemical. The settings on record: CDK6/CyclinD1, kinase inhibition profile. How it is done: as §3
Data set [7] concerns the target CDK6/CyclinD3 (Homo sapiens, UniProt Q00534). Description: Kinase panel profiling (Reaction Biology Corp). The settings on record: CDK6/CyclinD3, kinase inhibition profile. The class given is biochemical. The procedure: as §3
Data set [8] concerns the target CK2α1 (Homo sapiens, UniProt P68400). The experiment in a line: Kinase panel profiling (Reaction Biology Corp). The settings on record: CK2α1, kinase inhibition profile. The class given is biochemical. How it is done: as §3
For data set [9], the target named is CK2α2 (Homo sapiens, UniProt P19784). Description: Kinase panel profiling (Reaction Biology Corp). The class given is biochemical. Particulars: CK2α2, kinase inhibition profile. How it is done: as §3
Data set [10] concerns the target PIM3 (Homo sapiens, UniProt Q86V86). The experiment in a line: Kinase panel profiling (Reaction Biology Corp). The class given is biochemical. The settings on record: PIM3, kinase inhibition profile. The procedure:
as §3

Data set [11] concerns CEM, HBL-2, RS4-11 and Granta-519 cells. The experiment in a line: Apoptosis, Annexin V/DAPI staining. The class given is cell-based, human. Particulars: 0.5-2.0 μM, 24 hours post-treatment. The procedure:
Figure 5 Modulation of cell cycle expression and induction of apoptosis in ON 108110-treated MCL and T-ALL cell lines (A) CEM and Granta-519 cells were treated with either DMSO or increasing concentrations of ON108110 (0.5-2.0μM) for 24 hours. Cell cycle analysis was performed using propidium iodide staining. (B) CEM, HBL-2, RS4-11 and Granta-519 cells were treated with either DMSO (vehicle) or increasing concentrations of ON108110 (0.5-2.0 μM) for 24 hours and stained with Annexin V/DAPI (C) Graphical representation of apoptosis induced as shown in B. (D) Granta-519 cells were treated with increasing concentrations of ON108110 for 24 hours. Caspase activation and viability were measured using the Caspase Glo 3/7 and Cell Titer Blue assay kits, respectively. […]
To determine cell cycle distribution, 70% ethanol fixed cells were washed with phosphate buffered saline (PBS), resuspended in PBS and incubated with RNase and propidium iodide at 37°C for 20 min. DNA content was analyzed on a FACS Calibur (BD Immunocytometry Systems) and the data analyzed using Flowjo software (Treestar). Annexin V staining was measured using the FITC Annexin V Apoptosis Detection Kit I (BD Biosciences) according to the instructions of the manufacturer except that DAPI was substituted at a concentration of […] to measure DNA content.

Sequence of CK2α2 (P19784 whole entry): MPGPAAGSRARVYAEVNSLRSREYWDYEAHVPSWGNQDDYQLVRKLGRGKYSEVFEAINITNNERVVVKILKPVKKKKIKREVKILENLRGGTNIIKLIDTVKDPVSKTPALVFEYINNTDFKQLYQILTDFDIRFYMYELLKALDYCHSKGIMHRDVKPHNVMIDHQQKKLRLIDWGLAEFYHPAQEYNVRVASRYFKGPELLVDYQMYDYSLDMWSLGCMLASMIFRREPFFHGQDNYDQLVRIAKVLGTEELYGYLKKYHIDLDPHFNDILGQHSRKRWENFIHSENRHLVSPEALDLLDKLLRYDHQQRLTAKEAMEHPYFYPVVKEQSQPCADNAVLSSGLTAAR
Sequence of CDK5/P25 (Q00535 whole entry): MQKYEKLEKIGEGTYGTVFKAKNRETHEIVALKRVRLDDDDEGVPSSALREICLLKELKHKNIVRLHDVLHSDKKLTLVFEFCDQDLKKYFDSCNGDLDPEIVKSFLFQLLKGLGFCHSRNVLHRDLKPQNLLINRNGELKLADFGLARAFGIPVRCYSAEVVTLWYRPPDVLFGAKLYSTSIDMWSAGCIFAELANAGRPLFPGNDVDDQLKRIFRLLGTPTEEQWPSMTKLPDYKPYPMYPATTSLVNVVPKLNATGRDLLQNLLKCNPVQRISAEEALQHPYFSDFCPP
Sequence of CDK5/P25 (Q15078 99-307 partner limits assumed): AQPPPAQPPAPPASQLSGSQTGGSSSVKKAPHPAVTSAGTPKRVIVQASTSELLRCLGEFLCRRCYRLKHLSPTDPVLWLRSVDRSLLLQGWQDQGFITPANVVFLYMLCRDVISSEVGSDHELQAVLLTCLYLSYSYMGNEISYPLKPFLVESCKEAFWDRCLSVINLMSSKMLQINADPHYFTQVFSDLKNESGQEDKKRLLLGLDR
Sequence of CDK6/CyclinD3 (Q00534 whole entry): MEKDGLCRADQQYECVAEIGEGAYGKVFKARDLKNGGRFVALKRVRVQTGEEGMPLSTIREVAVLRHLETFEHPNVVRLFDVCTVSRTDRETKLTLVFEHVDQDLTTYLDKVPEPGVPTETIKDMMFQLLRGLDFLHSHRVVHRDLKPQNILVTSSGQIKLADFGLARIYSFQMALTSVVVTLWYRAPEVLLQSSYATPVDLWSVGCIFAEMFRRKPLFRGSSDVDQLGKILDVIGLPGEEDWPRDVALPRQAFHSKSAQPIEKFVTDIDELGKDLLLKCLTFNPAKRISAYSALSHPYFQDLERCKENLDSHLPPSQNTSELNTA
Sequence of CDK6/CyclinD3 (P30281 whole entry partner): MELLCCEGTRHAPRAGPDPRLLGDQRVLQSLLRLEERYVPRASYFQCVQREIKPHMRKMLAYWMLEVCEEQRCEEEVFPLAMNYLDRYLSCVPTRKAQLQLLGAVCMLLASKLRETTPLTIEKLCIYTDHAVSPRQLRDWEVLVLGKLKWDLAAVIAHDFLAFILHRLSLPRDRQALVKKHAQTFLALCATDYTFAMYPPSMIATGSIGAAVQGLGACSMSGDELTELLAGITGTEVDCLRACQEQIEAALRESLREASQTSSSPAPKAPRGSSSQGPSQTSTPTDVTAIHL
Sequence of CDK6/CyclinD1 (Q00534 whole entry): as the sequence (Q00534 whole entry) above
Sequence of CDK6/CyclinD1 (P24385 whole entry partner): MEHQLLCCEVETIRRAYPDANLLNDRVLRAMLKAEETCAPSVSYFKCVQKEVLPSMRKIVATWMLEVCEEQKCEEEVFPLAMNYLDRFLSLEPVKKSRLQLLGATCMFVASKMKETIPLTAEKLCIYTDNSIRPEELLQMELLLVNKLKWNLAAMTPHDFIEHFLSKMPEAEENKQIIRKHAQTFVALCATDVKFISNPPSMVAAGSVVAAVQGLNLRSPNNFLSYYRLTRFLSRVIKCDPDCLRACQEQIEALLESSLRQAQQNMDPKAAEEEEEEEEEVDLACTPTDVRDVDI
Sequence of CDK4/CyclinD3 (P11802 whole entry): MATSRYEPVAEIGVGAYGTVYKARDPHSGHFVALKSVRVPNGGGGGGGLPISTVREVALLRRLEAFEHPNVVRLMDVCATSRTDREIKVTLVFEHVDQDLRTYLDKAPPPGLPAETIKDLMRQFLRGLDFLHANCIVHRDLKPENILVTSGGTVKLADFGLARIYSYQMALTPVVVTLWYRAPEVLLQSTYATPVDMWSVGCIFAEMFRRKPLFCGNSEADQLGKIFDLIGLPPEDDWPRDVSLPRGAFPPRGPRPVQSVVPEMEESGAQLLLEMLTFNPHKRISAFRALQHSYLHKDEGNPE
Sequence of CDK4/CyclinD3 (P30281 whole entry partner): as the sequence (P30281 whole entry partner) above
Sequence of CDK4/CyclinD1 (P11802 whole entry): as the sequence (P11802 whole entry) above
Sequence of CDK4/CyclinD1 (P24385 whole entry partner): as the sequence (P24385 whole entry partner) above
Sequence of CK2α1 (P68400 whole entry): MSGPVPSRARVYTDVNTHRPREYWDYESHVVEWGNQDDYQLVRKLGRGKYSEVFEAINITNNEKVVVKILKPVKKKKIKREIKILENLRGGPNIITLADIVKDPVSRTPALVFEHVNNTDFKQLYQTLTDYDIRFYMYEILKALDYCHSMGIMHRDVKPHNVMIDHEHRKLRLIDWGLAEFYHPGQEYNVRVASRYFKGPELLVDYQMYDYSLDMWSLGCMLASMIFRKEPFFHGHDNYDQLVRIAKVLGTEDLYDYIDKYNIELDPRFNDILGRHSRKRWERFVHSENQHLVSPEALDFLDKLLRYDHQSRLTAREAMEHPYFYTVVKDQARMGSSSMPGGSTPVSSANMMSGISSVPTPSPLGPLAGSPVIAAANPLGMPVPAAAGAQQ

What is called GI50 is the concentration at which growth is held to half of that of the control. A high value points to lower sensitivity of the cells. As a reminder, the IC50 is the concentration needed to halve the response being measured. A higher IC50 goes with a need for much substance. The compound `CC(=O)Oc1ccc(/C=C2\Sc3ccc(F)cc3NC2=O)cc1[N+](=O)[O-]` [ON108110] had a GI50 at 96 h in data set [1] of over 5000 nM. Moreover, the “cytotoxicity towards normal human cells” value in data set [2] is “little or no cytotoxicity”. The IC50 in [3] is 11 nM; in [4], 15 nM; in data set [5], 7 nM; in [6], 2 nM; in [7], 24 nM; in data set [8], 3 nM. For the same compound, the IC50 in data set [9] and in data set [10] was 2 nM throughout. In [11], the “frequency of apoptotic cells (Annexin V)” value is recorded as “concentration-dependent increase in the frequency of apoptotic cells”.
